In ChEMBL document CHEMBL5291721, “A preclinical secondary pharmacology resource illuminates target-adverse drug reaction associations of marketed drugs” (Nat Commun, 2023):

Tests used:
Motilin receptor = Motilin receptor (Homo sapiens, UniProt O43193)
Adenosine receptor A3 = target: T1, Adenosine receptor A3 (Homo sapiens, UniProt P0DMS8)
T1 sequence (P0DMS8 whole entry): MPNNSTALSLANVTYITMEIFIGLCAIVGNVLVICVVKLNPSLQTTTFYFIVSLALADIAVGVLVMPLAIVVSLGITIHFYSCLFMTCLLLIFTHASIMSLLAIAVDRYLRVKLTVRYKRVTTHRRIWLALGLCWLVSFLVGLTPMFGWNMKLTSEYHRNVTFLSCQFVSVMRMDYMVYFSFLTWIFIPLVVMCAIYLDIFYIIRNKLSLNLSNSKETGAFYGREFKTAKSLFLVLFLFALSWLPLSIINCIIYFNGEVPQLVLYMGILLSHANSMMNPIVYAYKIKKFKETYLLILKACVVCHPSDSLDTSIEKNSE

[1] = target: T2, Muscarinic acetylcholine receptor M1 (Homo sapiens, UniProt P11229); assay type: functional
T2 sequence (P11229 whole entry): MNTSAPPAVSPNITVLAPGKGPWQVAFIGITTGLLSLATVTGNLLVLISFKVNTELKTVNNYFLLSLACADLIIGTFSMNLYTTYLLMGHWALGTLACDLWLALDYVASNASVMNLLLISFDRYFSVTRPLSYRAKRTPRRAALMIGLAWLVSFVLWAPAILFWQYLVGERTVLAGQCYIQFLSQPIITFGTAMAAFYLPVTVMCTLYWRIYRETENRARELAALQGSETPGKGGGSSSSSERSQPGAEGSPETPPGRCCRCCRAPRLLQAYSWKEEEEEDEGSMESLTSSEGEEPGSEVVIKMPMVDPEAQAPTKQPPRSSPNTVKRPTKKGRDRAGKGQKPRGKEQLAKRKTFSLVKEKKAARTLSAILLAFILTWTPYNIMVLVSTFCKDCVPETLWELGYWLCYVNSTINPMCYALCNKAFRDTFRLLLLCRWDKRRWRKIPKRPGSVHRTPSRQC

[2] = target: T3, Alpha-2A adrenergic receptor (Homo sapiens, UniProt P08913); assay type: functional, cell-based
T3 sequence (P08913 whole entry): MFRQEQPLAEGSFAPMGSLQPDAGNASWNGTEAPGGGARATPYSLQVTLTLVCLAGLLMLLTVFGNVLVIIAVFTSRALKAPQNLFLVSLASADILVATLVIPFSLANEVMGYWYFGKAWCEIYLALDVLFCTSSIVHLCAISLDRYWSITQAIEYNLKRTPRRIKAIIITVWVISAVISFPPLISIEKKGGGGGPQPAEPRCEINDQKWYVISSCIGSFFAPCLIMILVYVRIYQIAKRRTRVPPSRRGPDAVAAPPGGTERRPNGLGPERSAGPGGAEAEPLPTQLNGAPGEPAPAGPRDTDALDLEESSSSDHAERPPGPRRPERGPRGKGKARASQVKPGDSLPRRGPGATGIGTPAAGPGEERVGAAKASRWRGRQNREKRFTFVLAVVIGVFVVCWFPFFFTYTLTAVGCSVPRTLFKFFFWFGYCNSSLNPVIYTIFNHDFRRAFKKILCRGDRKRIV

Endothelin-1 receptor = target: T4, Endothelin-1 receptor (Homo sapiens, UniProt P25101)
T4 sequence (P25101 whole entry): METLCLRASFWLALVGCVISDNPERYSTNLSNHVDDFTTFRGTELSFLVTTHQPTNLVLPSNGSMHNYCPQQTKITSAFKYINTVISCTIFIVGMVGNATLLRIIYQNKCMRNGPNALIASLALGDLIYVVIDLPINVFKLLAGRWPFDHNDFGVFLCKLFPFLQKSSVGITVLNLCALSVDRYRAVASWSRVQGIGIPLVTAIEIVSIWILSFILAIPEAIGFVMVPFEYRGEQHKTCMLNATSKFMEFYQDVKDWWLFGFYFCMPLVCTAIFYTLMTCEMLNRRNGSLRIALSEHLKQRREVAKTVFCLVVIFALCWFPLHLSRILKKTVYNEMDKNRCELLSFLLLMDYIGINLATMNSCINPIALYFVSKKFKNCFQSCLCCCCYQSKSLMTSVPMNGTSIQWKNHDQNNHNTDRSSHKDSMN

[3] = target: T5, 5-hydroxytryptamine receptor 3A (Homo sapiens, UniProt P46098); assay type: functional
T5 sequence (P46098 whole entry): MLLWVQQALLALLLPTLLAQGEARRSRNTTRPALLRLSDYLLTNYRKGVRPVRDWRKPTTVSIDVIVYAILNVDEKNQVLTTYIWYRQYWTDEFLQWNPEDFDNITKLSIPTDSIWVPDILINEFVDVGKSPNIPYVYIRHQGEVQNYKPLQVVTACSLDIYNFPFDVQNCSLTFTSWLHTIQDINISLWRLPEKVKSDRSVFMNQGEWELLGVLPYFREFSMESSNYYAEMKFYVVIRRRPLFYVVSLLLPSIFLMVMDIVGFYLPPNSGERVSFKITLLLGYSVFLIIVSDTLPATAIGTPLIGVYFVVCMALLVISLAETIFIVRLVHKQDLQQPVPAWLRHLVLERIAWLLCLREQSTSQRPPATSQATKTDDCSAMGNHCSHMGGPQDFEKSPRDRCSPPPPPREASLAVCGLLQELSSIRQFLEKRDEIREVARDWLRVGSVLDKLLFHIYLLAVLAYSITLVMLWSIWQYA

[4] = target: cGMP-inhibited 3',5'-cyclic phosphodiesterase 3A (Homo sapiens, UniProt Q14432); assay type: functional
Vasopressin V2 receptor = Vasopressin V2 receptor (Homo sapiens, UniProt P30518)
Further: assay procedure not described here.

Vasopressin V2 receptor, sequence (P30518 whole entry): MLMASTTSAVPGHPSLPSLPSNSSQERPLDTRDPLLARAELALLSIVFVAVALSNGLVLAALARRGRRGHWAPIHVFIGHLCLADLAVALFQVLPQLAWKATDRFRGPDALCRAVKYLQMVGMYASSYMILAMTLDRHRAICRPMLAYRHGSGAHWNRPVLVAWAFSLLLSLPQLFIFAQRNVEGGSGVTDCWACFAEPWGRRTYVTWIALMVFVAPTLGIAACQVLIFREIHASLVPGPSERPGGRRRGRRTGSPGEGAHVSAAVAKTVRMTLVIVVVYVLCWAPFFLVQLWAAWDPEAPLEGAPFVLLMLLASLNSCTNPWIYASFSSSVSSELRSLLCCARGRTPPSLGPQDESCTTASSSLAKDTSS
Motilin receptor, sequence (O43193 whole entry): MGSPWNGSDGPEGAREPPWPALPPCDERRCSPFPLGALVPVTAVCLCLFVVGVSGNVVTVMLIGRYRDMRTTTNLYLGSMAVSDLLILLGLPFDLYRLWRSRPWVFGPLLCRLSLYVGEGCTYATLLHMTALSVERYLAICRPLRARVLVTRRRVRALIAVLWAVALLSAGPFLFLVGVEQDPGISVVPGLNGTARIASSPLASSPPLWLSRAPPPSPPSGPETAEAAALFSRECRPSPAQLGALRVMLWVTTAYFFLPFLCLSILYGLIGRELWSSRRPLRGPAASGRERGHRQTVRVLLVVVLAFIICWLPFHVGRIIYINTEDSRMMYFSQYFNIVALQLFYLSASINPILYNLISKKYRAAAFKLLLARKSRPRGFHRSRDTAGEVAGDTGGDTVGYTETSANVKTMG
cGMP-inhibited 3',5'-cyclic phosphodiesterase 3A, sequence (Q14432 whole entry): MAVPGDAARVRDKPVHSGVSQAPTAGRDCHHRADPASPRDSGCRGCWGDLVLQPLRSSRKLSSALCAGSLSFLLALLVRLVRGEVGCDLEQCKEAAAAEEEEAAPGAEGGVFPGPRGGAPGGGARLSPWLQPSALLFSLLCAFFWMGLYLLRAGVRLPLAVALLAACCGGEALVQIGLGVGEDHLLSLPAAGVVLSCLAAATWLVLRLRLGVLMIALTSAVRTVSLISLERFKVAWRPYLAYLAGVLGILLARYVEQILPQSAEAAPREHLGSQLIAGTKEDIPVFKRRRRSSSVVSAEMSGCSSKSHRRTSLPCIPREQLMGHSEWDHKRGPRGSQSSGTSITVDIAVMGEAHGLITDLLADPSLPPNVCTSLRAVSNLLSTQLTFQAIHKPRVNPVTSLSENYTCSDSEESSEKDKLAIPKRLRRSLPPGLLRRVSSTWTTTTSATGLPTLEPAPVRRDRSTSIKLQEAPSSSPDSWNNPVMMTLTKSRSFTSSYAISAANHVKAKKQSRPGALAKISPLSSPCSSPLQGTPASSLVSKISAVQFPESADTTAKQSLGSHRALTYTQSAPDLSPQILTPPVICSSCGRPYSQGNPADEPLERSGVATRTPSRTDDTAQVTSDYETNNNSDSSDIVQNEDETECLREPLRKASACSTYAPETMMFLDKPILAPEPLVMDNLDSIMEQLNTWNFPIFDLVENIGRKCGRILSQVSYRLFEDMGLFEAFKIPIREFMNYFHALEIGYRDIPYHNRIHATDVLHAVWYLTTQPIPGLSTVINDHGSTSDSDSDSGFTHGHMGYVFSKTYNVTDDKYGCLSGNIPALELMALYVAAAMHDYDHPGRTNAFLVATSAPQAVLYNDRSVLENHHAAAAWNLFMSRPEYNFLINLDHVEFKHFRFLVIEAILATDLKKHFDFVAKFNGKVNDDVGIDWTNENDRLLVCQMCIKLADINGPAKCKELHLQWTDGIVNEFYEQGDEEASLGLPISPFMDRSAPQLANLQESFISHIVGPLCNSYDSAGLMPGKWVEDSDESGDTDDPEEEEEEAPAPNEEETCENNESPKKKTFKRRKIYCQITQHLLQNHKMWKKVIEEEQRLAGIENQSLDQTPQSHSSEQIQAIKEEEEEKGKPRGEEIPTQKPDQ

Compound | AC50 (Motilin receptor) [µM] | AC50 (Adenosine receptor A3) [µM] | AC50 [2] [µM] | AC50 (Endothelin-1 receptor) [µM] | AC50 [3] [µM] | AC50 [4] [µM] | AC50 (Vasopressin V2 receptor) [µM] | AC50 [1] [µM]
CC(=N)N1CC[C@H](SC2=C(C(=O)O)N3C(=O)[C@H]([C@@H](C)O)[C@H]3C2)C1 | > 300 | 140 | > 300 | > 300 | > 300 | > 300 |  | 68
CC(/C=C1\SC(=S)N(CC(=O)O)C1=O)=C\c1ccccc1 | > 30 | 20 | > 30 | > 30 | 13 | > 30 | > 30 | 
C=C(C)[C@@H]1CCC(C)=C[C@H]1c1c(O)cc(CCCCC)cc1O [CANNABIDIOL] | 20.5 |  | > 10 | > 30 | > 30 | 25 |  | > 30
CN1C[C@H](C(=O)N[C@]2(C)O[C@@]3(O)[C@@H]4CCCN4C(=O)[C@H](Cc4ccccc4)N3C2=O)C[C@@H]2c3cccc4[nH]cc(c34)C[C@H]21 [DIHYDROERGOTAMINE] | > 10 | > 30 |  | > 30 | > 30 | > 30 | > 30 | 
CNCC[C@H](Oc1cccc2ccccc12)c1cccs1 [DULOXETINE] | 5.3 | > 30 | > 10 |  | 14 | > 30 | > 30 | > 10

Now from value to compound, other results behind:

AC50 (Motilin receptor) [µM] | AC50 (Adenosine receptor A3) [µM] | AC50 [2] [µM] | AC50 (Endothelin-1 receptor) [µM] | AC50 [3] [µM] | AC50 [4] [µM] | AC50 (Vasopressin V2 receptor) [µM] | Compound | AC50 [1] [µM]
> 30 | > 30 | > 30 | > 30 | > 30 | > 30 | > 30 | CC1(C)S[C@@H]2[C@H](NC(=O)[C@H](N)c3ccc(O)cc3)C(=O)N2[C@H]1C(=O)O [AMOXICILLIN] | 
> 10 | > 30 | > 10 |  | > 30 |  | > 30 | O=C1CN2Cc3c(ccc(Cl)c3Cl)N=C2N1 [ANAGRELIDE] | > 10
> 30 | > 30 |  | > 30 |  | > 30 | > 30 | CNCC[C@@H](Oc1ccccc1C)c1ccccc1 [ATOMOXETINE] | 
> 30 | 4.19 | > 30 | > 30 | > 30 | 9.4 | > 30 | CCc1oc2ccccc2c1C(=O)c1cc(Br)c(O)c(Br)c1 [BENZBROMARONE] | 
0.784 | 4.1 | > 30 |  | 5.9 | 11 | 3.9 | [H]/N=C(\N/C(=N/[H])NCCCCCCNC(=N)NC(=N)Nc1ccc(Cl)cc1)Nc1ccc(Cl)cc1 [CHLORHEXIDINE] | > 10
> 10 | > 30 |  | > 30 | > 30 | > 30 | > 30 | Clc1cccc(Cl)c1N=C1NCCN1 [CLONIDINE] | 
> 30 | > 30 | > 30 | > 30 | > 30 | > 30 | > 30 | COC(=O)[C@H](c1ccccc1Cl)N1CCc2sccc2C1 [CLOPIDOGREL] | 
